Patent publication US5026708A, “Pyrimidine type mevalonolactones” (Nissan Chemical Industries Ltd., priority 1987, dated 1991)
Where a name gives a salt, the structure may show the parent alone. Read-outs that look alike come from different tables or passages of the source.

Experiments:
[1] = system: cholesterol biosynthesis in which HMG-CoA reductase serves as a rate limiting enzyme (rat liver microsome and sup fraction); test: Test A: Inhibition of cholesterol biosynthesis from acetate in vitro; format: biochemical, male Wistar rat; conditions: for Relative activities by Test A: based on the activities of CS-514 by Test A being evaluated to be 1; for IC50: Test A, rat liver microsome and sup fraction, [2-14C]sodium acetate, 2 hours at 37° C., read-out: IC50 (molar concentration), inhibitory activities by Test A
Description: Enzyme solution was prepared from liver of male Wistar rat billialy connulated and discharged bile for over 24 hours. Liver was cut out at mid-dark and microsome and supernatant fraction which was precipitable with 40-80% of saturation of ammonium sulfate (sup fraction) were prepared from liver homogenate according to the modified merhod of Knauss et. al.; Kuroda, M., et. al., Biochim. Biophys. Acta, 489, 119 (1977). For assay of cholesterol biosynthesis, microsome (0.1 mg protein) and sup fraction (1.0 mg protein) were incubated for 2 hours at 37° C. in 200 μl of the reaction mixture containing ATP; 1 mM, Glutathione; 6 mM, Glucose-1-phosphate; 10 mM, NAD; 0.25 mM, NADP; 0.25 mM, CoA; 0.04 mM and 0.2 mM [2-^14 C]sodium acetate (0.2 μCi) with 4 μl of test compound solution dissolved in water or dimethyl sulfoxide. To stop reaction and saponify, 1 ml of 15% EtOH-KOH was added to the reactions and heated at 75° C. for 1 hour. Nonsaponifiable lipids were extracted with petroleum ether and incorporated ^14 C radioactivity was counted. Inhibitory activity of compounds was indicated with IC50.
(§1) With respect to the compounds of the present invention, the inhibitory activities against the cholesterol biosynthesis in which HMG-CoA reductase serves as a rate limiting enzyme, were measured by the above Test A and B. The results are shown in Tables 2, 2-2 and 3. Further, the results of the measurements by Test C are also presented.

[2] = system: cholesterol biosynthesis; test: Test C: Inhibition of cholesterol biosynthesis in vivo; design: species or system Male Sprague-Dawley rats; conditions: rats
Description: Male Sprague-Dawley rats weighing about 150 g were fed normal Purina chow diet and water ad libitum, and exposed to 12 hours light/12 hours dark lighting pattern (2:00 PM-2:00 AM dark) prior to use for in vivo inhibition test of cholesterol biosynthesis. Animals were separated groups consisting of five rats as to be average mean body weight in each groups. […] As control, rats were orally administered only water or vehicle. At 90 minutes after sample administration, rats were injected intraperitoneally with 10 μCi of [2-^14 C]sodium acetate at volume of 0.2 ml per one. 2 Hours later, blood samples were obtained and serum were separated immediately. Total lipids were extracted according to the method of Folch et al. and saponified with EtOH-KOH. Nonsaponifiable lipids were extracted with petroleum ether and radio activity incorporated into nonsaponifiable lipids was counted.
Inhibitory activity was indicated as percent decrease of counts in testing groups (DPM/2 ml serum/2 hours) from that in control group.

[3] = system: cholesterol biosynthesis in Hep G2 cells; test: Test B: Inhibition of cholesterol biosynthesis in culture cells; format: cell-based; conditions: acetate added at 0 hr; for Relative activities by Test B-1: based on the activities of CS-514 by Test B-1 being evaluated to be 1
Description: Hep G2 cells at over 5th passage were seeded to 12 well plates and incubated with Dulbecco's modified Eagle (DME) medium containing 10% of fetal bovine serum (FBS) at 37° C., 5% CO2 until cells were confluent for about 7 days. Cells were exposed to the DME medium containing 5% of lipoprotein deficient serum (LpDS) prepared by ultracentrifugation method for over 24 hours. Medium was changed to 0.5 ml of fresh 5% LpDS containing DME before assay and 10 μl of test compound solution dissolved in water or DMSO were added. 0.2 μCi of [2-^14 C]sodium acetate (20 μl ) was added at 0 hr(B-1) or 4 hrs(B-2) after addition of compounds. After 4 hrs further incubation with [2-^14 C]sodium acetate, medium was removed and cells were washed with phosphate buffered saline(PBS) chilled at 4° C. Cells were scraped with rubber policeman and collected to tubes with PBS and digested with 0.2 ml of 0.5 N KOH at 37° C. Aliquot of digestion was used for protein analysis and remaining was saponified with 1 ml of 15% EtOH-KOH at 75° C. for 1 hour. Nonsaponifiable lipids were extracted with petroleum ether and ^14 C radioactivity was counted. Counts were revised by cell protein and indicated with DPM/mg protein. Inhibitory activity of compounds was indicated with IC50.
as §1

[4] = Test D: Acute toxicity; design: species or system ICR male mice; conditions: mouse, in vivo, oral, 0.5% CMC suspension, read-out: mortality after seven days
Description: A 0.5% CMC suspension of a test compound was orally administered to ICR male mice (group of from one to three mice). The acute toxicity was determined based on the mortality after seven days. With compound I-5-8 and I-5-11 of the present invention, the mortality was 0% even when they were orally administered in an amount of 824 mg/kg and 982 mg/kg, respectively.

SMILES | Relative activities by Test A [1] | Relative activities by Test B-1 [3] | also measured
CC(C)c1nc(-c2ccccc2)nc(-c2ccc(F)cc2)c1/C=C/[C@@H]1C[C@@H](O)CC(=O)O1 (relative stereo) [Compound I-3-8, (E)-6-[4'-(4''-fluorophenyl)-6'-(1''-methylethyl)-2'-phenylpyrimidin-5 '-ylethenyl]-4-hydroxy-3,4,5,6-tetrahydro-2H-pyran-2-one] | 5.2 |  | 
CC[C@H](C)C(=O)O[C@H]1C[C@H](O)C=C2C=C[C@H](C)[C@H](CC[C@@H](O)C[C@@H](O)CC(=O)O)[C@H]21 [CS-514, reference compound] |  |  | percent decrease of counts relative to control group ([2]; oral administration of 10 mg/kg): 55%; IC50 [1]: 12.5 nM; IC50 ([3]; Homo sapiens, HepG2, Test B-1, Hep G2 cells, read-out: IC50 (molar concentration), Test B-1): 1400 nM
CCOC(=O)CC(O)CC(O)/C=C/c1c(-c2ccc(F)cc2)nc(Cc2ccccc2)nc1C1CC1 (centres unmarked) [Compound I-1-12] |  | 41.3 | 
CCOC(=O)CC(O)CC(O)/C=C/c1c(-c2ccc(F)cc2)nc(-c2cccc(Cl)c2)nc1C1CC1 (centres unmarked) [Compound I-1-13] |  | 41.6 | 
CCOC(=O)CC(O)CC(O)/C=C/c1c(-c2ccc(F)cc2)nc(-c2ccc(OC)cc2)nc1C1CC1 (centres unmarked) [Compound I-1-14] |  | 72.5 | 
Cc1nc(-c2ccccc2)nc(-c2ccc(F)cc2)c1/C=C/C(O)CC(O)CC(=O)O (centres unmarked) [Compound I-5-1, Sodium salt of (E)-3,5-dihydroxy-7-[4'-(4''-fluorophenyl)-6'methyl-2 2'-phenylpyrimidin-5'-yl]hept-6-enoic acid] |  |  | IC50 [1]: 18 nM
Cc1nc(C)c(/C=C/C(O)CC(O)CC(=O)O)c(-c2ccccc2)n1 (centres unmarked) [Compound I-5-2] |  |  | IC50 [1]: 5000 nM
Cc1nc(-c2ccccc2)nc(-c2ccccc2)c1/C=C/C(O)CC(O)CC(=O)O (centres unmarked) [Compound I-5-3] |  |  | IC50 [1]: 100 nM
CC(C)c1nc(-c2ccccc2)nc(-c2ccc(F)cc2)c1/C=C/C(O)CC(O)CC(=O)O (centres unmarked) [Compound I-5-8] | 4.6 | 36.1 | mortality at 168 h ([4]; 824 mg/kg): 0%
O=C(O)CC(O)CC(O)/C=C/c1c(-c2ccc(F)cc2)nc(-c2ccccc2)nc1C1CC1 (centres unmarked) [Compound I-5-11] | 15.9 | 28.4 | mortality at 168 h ([4]; 982 mg/kg): 0%
O=C(O)CC(O)CC(O)/C=C/c1c(-c2ccc(F)cc2)nc(Cc2ccccc2)nc1C1CC1 (centres unmarked) [Compound I-5-12] | 14.8 | 46.3 | 
O=C(O)CC(O)CC(O)/C=C/c1c(-c2ccc(F)cc2)nc(-c2cccc(Cl)c2)nc1C1CC1 (centres unmarked) [Compound I-5-13] | 15.9 |  | 
COc1ccc(-c2nc(-c3ccc(F)cc3)c(/C=C/C(O)CC(O)CC(=O)O)c(C3CC3)n2)cc1 (centres unmarked) [Compound I-5-14] | 16.1 |  | 
Cc1ccc(-c2nc(-c3ccc(F)cc3)c(/C=C/C(O)CC(O)CC(=O)O)c(C3CC3)n2)cc1 (centres unmarked) [Compound I-5-15] | 14.5 | 58.5 | percent decrease of counts relative to control group ([2]; oral administration of 0.5 mg/kg): 35%
O=C(O)CC(O)CC(O)/C=C/c1c(-c2ccc(F)cc2)nc(-c2ccc(-c3ccccc3)cc2)nc1C1CC1 (centres unmarked) [Compound I-5-16] | 1.9 |  | 
O=C(O)CC(O)CC(O)/C=C/c1c(-c2ccc(F)cc2)nc(-c2cccc(C(F)(F)F)c2)nc1C1CC1 (centres unmarked) [Compound I-5-17] | 12.2 |  | 
CC[C@H](C)C(=O)O[C@H]1C[C@@H](C)C=C2C=C[C@H](C)[C@H](CC[C@@H]3C[C@@H](O)CC(=O)O3)[C@H]21 [Mevinolin, reference compound] |  |  | IC50 [1]: 14 nM
